The values below come from patent US5164314A, “Microbiologically-prepared diacetyl reductase” (priority 1988, dated 1992).

As usually defined, the Km is the concentration of substrate that gives half-maximal velocity.

Several values for one entry are separate records, joined by “and”; a condition that tells them apart may be missing. Equal entries are not always repeated. Where two headings read alike, the source gives them in different places.

For data set [1], the system named is diacetyl reductase E2. Kind of data set: Substrate spectrum and KM determination, enzyme E2. Format: biochemical, Lactobacillus kefir. The protocol: To determine KM, the activity of both Lactobacillus enzymes was measured as a function of the substrate concentration.
Various substrates were assayed with the most highly-purified preparations of the Lc. enzymes E1 and E2. The maximum conversion rate and KM were measured for each substrate by altering the concentration.

Data set [2] relates to diacetyl reductase E1. Kind of data set: Substrate spectrum and KM determination, enzyme E1. The data set is classed as biochemical, Lactobacillus kefir. Details: Rel. Vmax E1: unit not given here.
The subject of data set [3] is Lc. enzyme (diacetyl reductase). Description: Effect of various metal cations and inhibitors on the diacetyl-reducing activity. The settings on record: for Inhibition of the enzyme (in words): 1 mM concentration. Format: biochemical, Lactobacillus kefir. The procedure: In order to determine the behavior of the diacetyl-reducing activity in the presence of metal cations and inhibitors, the appropriate substances were added in a concentration of 1 mM to the assay, and the activities were determined after an incubation time of 5 min at 20° C. The absorption characteristics of diacetyl made it necessary to determine two blanks, one measured with replacement of enzyme solution, and the other measured by replacing substrate solution by buffer.

In data set [4] the test system is diacetyl reductase E1. Kind of data set: Stereospecificity by oxidation of D(-)- and L(+)-lactic acid, enzyme E1. Format: biochemical, Lactobacillus kefir. The note with it: NAD+, potassium phosphate buffer pH 7.0. An excerpt: (§1) But since the enzyme can also reduce pyruvate (as shown in Table 5), this provides a method of establishing the stereospecificity on the basis of the pair of substrates (+)- and (-)-lactate. In assay mixtures with D(-)- or L(+)-lactic acid and NAD^+ in potassium phosphate buffer (pH 7.0), the two enzymes E1 and E2 were able to convert D(-)-lactic acid very well, whereas […] was converted with 5% of this activity by E1 and with 4% of this activity by E2.

Data set [5] concerns diacetyl reductase E2. Kind of data set: Stereospecificity by oxidation of D(-)- and L(+)-lactic acid, enzyme E2. Format: biochemical, Lactobacillus kefir. The settings on record: NAD+, potassium phosphate buffer pH 7.0.
Text: as §1

Data set [6] deals with diacetyl reductase. The protocol:
The enzyme was incubated with various concentrations of manganese chloride in an ice bath for 1 hour. The activity of each sample was then determined and, after 15 and 30 min, the activities were redetermined by renewed NADH addition.

Data set [7] has as its system diacetyl reductase. Kind of data set: Acetoin oxidation reaction with NAD as coenzyme. Format: biochemical, Lactobacillus kefir. The settings on record: pH and concentrations altered.
The nature of data set [8]: Conversion of diacetyl by available lactate dehydrogenase. Format: biochemical. The text has this: But it can be stated that, when available lactate dehydrogenase is used, diacetyl is not converted.
Where [9] appears, read: most highly-purified E2, read-out: Km E2.
[10] abbreviates: most highly-purified E1, read-out: Km E1.
Setting [11] is: 1 mM, incubation 5 min at 20° C.

`NC(=O)C1=CN([C@@H]2O[C@H](COP(=O)(O)OP(=O)(O)OC[C@H]3O[C@@H](n4cnc5c(N)ncnc54)[C@H](O)[C@@H]3O)[C@@H](O)[C@H]2O)C=CC1` [NADH, nicotinamide adenine dinucleotide, reduced]: the “Rel. Vmax E2” value in the data set with diacetyl reductase E2 [1] (most highly-purified E2) was 100. The Michaelis-Menten constant (Km) came out at 0.036 mM in the data set on diacetyl reductase E2 [1] (setting [9]) and 0.03 mM with diacetyl reductase E1 [2] (setting [10]). Also, the “Rel. Vmax E1” value with diacetyl reductase E1 [2] (most highly-purified E1) is listed as 100.

With `N[C@@H](CCC(=O)N[C@@H](CS)C(=O)NCC(=O)O)C(=O)O` [Gluthathione], the “Residual activity of the Lc. enzyme” value in data set [3] (setting [11]) was 103%.

For `C[C@@H](O)C(=O)O` [D(-)-lactic acid], the “Conversion of lactic acid by E1 (in words)” value in the data set with diacetyl reductase E1 [4] is listed as “very well”. In the data set with diacetyl reductase E2 [5], the “Conversion of lactic acid by E2 (in words)” value was “very well”.

For the compound `O=C(O)CN(CCN(CC(=O)O)CC(=O)O)CC(=O)O` [EDTA], the “Residual activity of the Lc. enzyme” value in data set [3] was 94%.

Regarding `[Cl][Fe]([Cl])[Cl]` [FeCl3], the “Residual activity of the Lc. enzyme” value in data set [3] (setting [11]) is given as 82%.

Turning to Triton X-100, in data set [3] (setting [11]), the “Residual activity of the Lc. enzyme” value is listed as 113%.

`CC(=O)CC(C)=O` [Acetylacetone, 2,4-pentanedione]: the Km in the data set with diacetyl reductase E1 [2] (enzyme not named in b63 (E1 in Table 5), read-out: Km for acetylacetone) was 50 mM; in the data set on diacetyl reductase E1 [2] (setting [10]), 50 mM. The “Rel. Vmax E1” value in the data set on diacetyl reductase E1 [2] (most highly-purified E1) is recorded as 8.

Take `[Ba+2].[Cl-].[Cl-]` [BaCl2]: in data set [3] (setting [11]), the “Residual activity of the Lc. enzyme” value was found to be 102%.

`CCC(CC)(C(=O)O)C(=O)O` [Diethylmalonic acid]: the “Residual activity of the Lc. enzyme” value in data set [3] (setting [11]) is reported as 100%.

Regarding `c1cnc2c(c1)ccc1cccnc12` [1,10-Phenanthroline], in data set [3], the “Inhibition of the enzyme (in words)” value is given as “strong inhibition”. Besides, the “Residual activity of the Lc. enzyme” value in data set [3] (setting [11]) is given as 0%.

Take `N[C@H]1CONC1=O` [L-Cycloserine]: in data set [3] (setting [11]), the “Residual activity of the Lc. enzyme” value is 100%.

With `[Cl][Mn][Cl]` [MnCl2, manganese chloride], the “Residual activity of the Lc. enzyme” value in data set [3] (setting [11]) turned out to be 91%. Besides, the rel. activity with diacetyl reductase [6] (1 mM manganese, 15 min) is 69%; with diacetyl reductase [6] (1 mM manganese, 30 min) it was 0.3%; in the data set on diacetyl reductase [6] (1 mM manganese, t = 0) it was 100%; in the data set with diacetyl reductase [6] (2 mM manganese, 15 min), 79%; in the data set with diacetyl reductase [6] (2 mM manganese, 30 min), 25%; in the data set with diacetyl reductase [6] (2 mM manganese, t = 0) it was 100%. Further, the rel. activity is reported as 88% in the data set on diacetyl reductase [6] (5 mM manganese, 15 min); 39% in the data set with diacetyl reductase [6] (5 mM manganese, 30 min); 100% in the data set with diacetyl reductase [6] (5 mM manganese, t = 0); 46% in the data set with diacetyl reductase [6] (10 mM manganese, 15 min); 19% in the data set with diacetyl reductase [6] (10 mM manganese, 30 min); 100% in the data set on diacetyl reductase [6] (10 mM manganese, t = 0). In addition, in the data set with diacetyl reductase [6] (5 mM), the “Effect on enzyme stability (in words)” value is “distinctly stabilizes the enzyme”.

In the case of `c1ccc(-c2ccccn2)nc1` [2,2'-Bipyridyl], the “Residual activity of the Lc. enzyme” value in data set [3] (setting [11]) worked out at 19%.

Take `C[C@H](O)C(=O)O` [L(-)-lactic acid, L(+)-lactic acid]: the “Activity relative to that with D(-)-lactic acid, E1” value in the data set on diacetyl reductase E1 [4] came out at 5%. Moreover, the “Activity relative to that with D(-)-lactic acid, E2” value in the data set with diacetyl reductase E2 [5] amounted to 4%.

As for `[Cl-].[Cl-].[Mg+2]` [MgCl2], the “Inhibition of the enzyme (in words)” value in data set [3] is reported as “strong inhibition”. Moreover, the “Residual activity of the Lc. enzyme” value in data set [3] (setting [11]) was 0%.

On to `CC(=O)C(C)=O` [Diacetyl], for which the “diacetyl concentration of substrate saturation, E2” value with diacetyl reductase E2 [1] is “above 1 M”. In addition, the Km with diacetyl reductase E2 [1] (linear regression of Lineweaver-Burke plot, read-out: Km (E2)) worked out at 67 mM; with diacetyl reductase E2 [1] (setting [9]) it was 67 mM; in the data set with diacetyl reductase E2 [1] (pH 4.25, read-out: KM for the reduction of diacetyl (E2)), 67 mM. In addition, the “Rel. Vmax E2” value with diacetyl reductase E2 [1] (most highly-purified E2) worked out at 100. Besides, in the data set on diacetyl reductase E1 [2], the “diacetyl concentration of substrate saturation, E1” value is “above 1 M”. The “Rel. Vmax E1” value in the data set on diacetyl reductase E1 [2] (most highly-purified E1) is on record as 100.

On to `CC(=O)CCC(C)=O` [2,5-Hexanedione], for which, in the data set with diacetyl reductase E1 [2] (most highly-purified E1), the “Rel. Vmax E1” value is recorded as 7. Besides, the Km in the data set with diacetyl reductase E1 [2] (setting [10]) worked out at 26 mM.

Turning to `[Cl-].[Cl-].[Co+2]` [CoCl2], in data set [3] (setting [11]), the “Residual activity of the Lc. enzyme” value is listed as 102%.

Turning to `[Cl][Ni][Cl]` [NiCl2], the “Residual activity of the Lc. enzyme” value in data set [3] (setting [11]) was 100%.

Take `NC(=O)CI` [Iodoacetamide]: the “Residual activity of the Lc. enzyme” value in data set [3] (setting [11]) was found to be 99%.

Consider `O[C@H](CS)[C@H](O)CS` [Dithiothreitol], for which the “Residual activity of the Lc. enzyme” value in data set [3] (setting [11]) is given as 106%.

In the case of `O[C@H](CS)[C@@H](O)CS` [1,4-Dithioerythritol], in data set [3] (setting [11]), the “Residual activity of the Lc. enzyme” value is listed as 72%.

With `[Cl][Fe][Cl]` [FeCl2], in data set [3], the “Inhibition of the enzyme (in words)” value is recorded as “strong inhibition”. Besides, the “Residual activity of the Lc. enzyme” value in data set [3] (setting [11]) was 0%.

As to `NNc1ccccc1` [Phenylhydrazine], the “Inhibition of the enzyme (in words)” value in data set [3] is on record as “strong inhibition”. Besides, the “Residual activity of the Lc. enzyme” value in data set [3] (setting [11]) worked out at 0%.

Regarding `O=C(O)c1cc(SSc2ccc([N+](=O)[O-])c(C(=O)O)c2)ccc1[N+](=O)[O-]` [2,2'-Dinitro-5,5'-dithiodibenzoic acid], in data set [3], the “Inhibition of the enzyme (in words)” value is “strong inhibition”. For the same compound, the “Residual activity of the Lc. enzyme” value in data set [3] (setting [11]) is listed as 0%.

Regarding `CCOC(=O)C(C)=O` [Ethyl pyruvate], the “Rel. Vmax E2” value in the data set with diacetyl reductase E2 [1] (most highly-purified E2) is listed as 77. Also, the Michaelis constant (Km) turned out to be 2.1 mM with diacetyl reductase E2 [1] (setting [9]) and 2.4 mM with diacetyl reductase E1 [2] (setting [10]). The “Rel. Vmax E1” value in the data set on diacetyl reductase E1 [2] (most highly-purified E1) is recorded as 109.

Consider `O=S(=O)(F)Cc1ccccc1` [PMSF], for which, in data set [3], the “Inhibition of the enzyme (in words)” value is reported as “less inhibition”. Besides, in data set [3] (setting [11]), the “Residual activity of the Lc. enzyme” value was 29% and 30%.

On to `CC(=O)C(C)O` (single isomer, unassigned) [acetoin], for which the “acetoin oxidation reaction (in words)” value with diacetyl reductase [7] is “never possible to measure”.

Take `CCN1C(=O)C=CC1=O` [N-Ethylmaleimide]: the “Residual activity of the Lc. enzyme” value in data set [3] (setting [11]) is given as 112%.

As for `[Cl][Hg][Cl]` [HgCl2], the “Inhibition of the enzyme (in words)” value in data set [3] is “strong inhibition”. For the same compound, the “Residual activity of the Lc. enzyme” value in data set [3] (setting [11]) is on record as 0%.

Regarding Diacetylbenzene, the “Rel. Vmax E1” value in the data set with diacetyl reductase E1 [2] (most highly-purified E1) was 1.3.

As for `O=C(O)c1cc[c]([Hg+])cc1.[OH-]` [p-Hydroxymercuribenzoate], the “Residual activity of the Lc. enzyme” value in data set [3] (setting [11]) turned out to be 79%.

With `O=C(O)CI` [Iodoacetic acid], the “Residual activity of the Lc. enzyme” value in data set [3] is 102%.

Regarding lactate dehydrogenase, the “conversion of diacetyl (in words)” value in data set [8] was “not converted”.

Take `[Cl-].[Cl-].[Zn+2]` [ZnCl2]: the “Residual activity of the Lc. enzyme” value in data set [3] (setting [11]) came to 85%.

For `[Ca+2].[Cl-].[Cl-]` [CaCl2], the “Residual activity of the Lc. enzyme” value in data set [3] (setting [11]) is on record as 96%.

On to `[Cl][Cu][Cl]` [CuCl2], for which the “Inhibition of the enzyme (in words)” value in data set [3] was “strong inhibition”. Also, in data set [3] (setting [11]), the “Residual activity of the Lc. enzyme” value was found to be 0%.
